Drawing on article PMC8962293, “Synthesis, Structure, and Antiproliferative Action of 2-Pyridyl Urea-Based Cu(II) Complexes” (Biomedicines, 2022), this text covers viability, IC50 and Molar conductivity for 22 compounds.

Usually viability stands for a read-out of living cells in per cent, often relative to untreated cells. Broadly, the IC50 is the concentration at which inhibition is half-maximal. A lower IC50 goes with higher potency.

Each structure is given as a SMILES string.

Data set [1] in a line: MTT assay on A549 cells. It is filed as cell-based, human. As to conditions: human, A549 lung carcinoma cells, 72 h, read-out: Cell Viability, %; for viability at 72 h, 10 µM: A549, 10 µM; for viability at 72 h, 100 µM: A549, 100 µM. Here is the method:
(§1) A549, NCI-H460, NCI-H1975 lung cancer cells and WI-26 VA4 lung epithelial-like cells were purchased from the ATCC. A549 cells were maintained in F12-K (Corning, NY, USA) supplemented with 10% fetal bovine serum (Fetal Bovine Serum, qualified, Australia; Gibco, Loughborough, UK), penicillin (100 UI mL^−1), streptomycin (100 µg mL^−1), and GlutaMax (1.9 mM, Gibco, UK). NCI-H460 and NCI-H1975 cells were maintained in RPMI-1640 (ATCC modification) media (Gibco, Loughborough, UK) supplemented with 10% fetal bovine serum (Fetal Bovine Serum, qualified, Australia; Gibco, Loughborough, UK), penicillin (100 UI mL^−1), streptomycin (100 µg mL^−1), and GlutaMax (2 mM, Gibco, UK). WI-26 VA4 cells were maintained in Advanced MEM (Gibco, Loughborough, UK) supplemented with 5% fetal bovine serum (Fetal Bovine Serum, qualified, Australia, Gibco, UK), penicillin (100 UI mL^−1), streptomycin (100 µg mL^−1), and GlutaMax (1.87 mM, Gibco, Loughborough, UK). All cells line cultivation under a humidified atmosphere of 95% air/5% CO2 at 37 °C. Subconfluent monolayers, in the log growth phase, were harvested by a brief treatment with TrypLE Express solution (Gibco, Loughborough, UK) in phosphate buffered saline (PBS, Capricorn Scientific, Germany) and washed three times in serum-free PBS. The number of viable cells was determined by trypan blue exclusion.
(§2) The effects of the synthesized compounds on cell viability were determined using the MTT colorimetric test. All examined cells were diluted with the growth medium to 3.5 × 10^4 cells per mL and the aliquots (7 × 10^3 cells per 200 μL) were placed in individual wells in 96-well plates (Eppendorf, Hamburg, Germany) and incubated for 24 h. The next day, the cells were treated with synthesized compounds separately in concentration 10 and 100 μM (or 200.0 μM concentration and diluted at various concentrations for determination of IC50) and incubated for 72 h at 37 °C in 5% CO2 atmosphere. Each compound was tested in triplicate. After incubation, the cells were treated with 40 μL MTT solution (3-(4,5-dimethylthiazol-2-yl)-2,5-diphenyltetrazolium bromide, 5 mg mL^−1 in PBS) and incubated for 4 h. After additional 4-h incubation, the medium with MTT was removed and DMSO (150 μL) was added to dissolve the formazan crystals. The plates were shaken for 10 min. The optical density of each well was determined at 560 nm using GloMax Multi+ (Promega, Madison, WI, USA) microplate reader. Each of the tested compounds was evaluated for cytotoxicity in three separate experiments. All stock solutions for biological evaluations were prepared via dissolving synthesized compounds in DMSO.
(In general: Tetrazolium dyes change colour on reduction, which living cells bring about.)

In data set [2] the test system is NCI-H460 non-small cell lung carcinoma cells. Kind of data set: MTT assay on NCI-H460 cells. To be noted: NCI-H460, 72 h. It is filed as cell-based, human. On the procedure:
as §1, §2

The test system of data set [3] is A549 human lung carcinoma cells. Kind of data set: MTT assay on A549 cells. It is filed as cell-based. As to conditions: A549, 72 h. Here is the method:
as §1, §2

Data set [4] deals with non-cancerous lung fibroblast WI-26 VA4. Kind of data set: MTT assay on WI-26 VA4 cells (non-specific cytotoxicity). It is filed as cell-based, human. To be noted: WI-26 VA4, 72 h. On the procedure: as §1, §2
The test system of data set [5] is EGFR-mutant NCI-H1975 non-small cell lung carcinoma cells. Kind of data set: MTT assay on NCI-H1975 cells. It is filed as cell-based, human. To be noted: NCI-H1975, 72 h, MTT. Here is the method: as §1, §2
Data set [6] is described as follows: Molar conductivity in DMSO solution. As to conditions: DMSO solutions, 25 °C. It is filed as physicochemical. Here is the method: The preparation and characterization of starting pyridine-N-oxides as well as U1–12 are described previously. CuCl2, other reactants, and solvents were obtained from commercial sources. High-resolution mass-spectra (HRMS) were measured on Bruker Maxis HRMS-ESI-qTOF (Electrospray Ionization, ESI; Bruker, Billerica, MA, USA); a MeOH was used as the solvent. The instrument was operated at positive ion mode using m/z range of 50–3000. The capillary voltage of the ion source was set at –4500 V (ESI^+) and the capillary exit at +(70–150) V. The nebulizer gas pressure was 0.4 bar and drying gas flow was 4.0 L/min. The most intensive peak in the isotopic pattern is reported. Infrared spectra (4000–400 cm^–1) were recorded on a Shimadzu FTIR 8400S (Shimadzu, Kyoto, Japan) instrument in KBr pellets. The C, H, and N elemental analyses were carried out on a Leco TruSpec Micro CHNS analyzer (LECO, St. Joseph, MI, USA). TGA was performed on a ca. 2 mg samples of Cu(II) complexes by using a Netzsch TG 209 F1 Libra thermal analyzer (Netzsch, Selb, Germany). The samples were dried under a vacuum at 50 °C before heating from 40 to 450 °C at a heating rate of 10 K min^–1. A flow rate of 10 mL min^–1 of dry argon was used to purge the samples. Molar conductivity was measured with an Elico digital conductivity bridge model CM-88, using a freshly prepared DMSO solution of the complexes.

As to `CN(C)C(=O)Nc1ccccn1` [Complex U1], in data set [1], the viability at 72 h, 10 µM was 100 ± 18% and the viability at 72 h, 100 µM is 86.5 ± 7.5%.

`Cc1ccnc(NC(=O)N(C)C)c1` [Complex U2]: in data set [1], the viability at 72 h, 10 µM came out at 102 ± 2.7% and the viability at 72 h, 100 µM turned out to be 98.7 ± 3.8%.

For `CN(C)C(=O)Nc1cc([N+](=O)[O-])ccn1` [Complex U3], in data set [1], the viability at 72 h, 10 µM was determined as 95.5 ± 3.3% and the viability at 72 h, 100 µM was determined as 91.6 ± 4.3%.

For the compound `CN(C)C(=O)Nc1cc(C#N)ccn1` [Complex U4], in data set [1], the viability at 72 h, 10 µM is 94.2 ± 6.7% and the viability at 72 h, 100 µM is 89 ± 5.1%.

Consider `Cc1nc(-c2ccnc(NC(=O)N(C)C)c2)no1` [Complex U5], for which, in data set [1], the viability at 72 h, 10 µM is 101 ± 5.5% and the viability at 72 h, 100 µM turned out to be 90.2 ± 8.7%.

On to `Cc1nnc(-c2ccnc(NC(=O)N(C)C)c2)o1` [Complex U6], for which, in data set [1], the viability at 72 h, 10 µM turned out to be 94.5 ± 7.1% and the viability at 72 h, 100 µM amounted to 89.9 ± 2.4%.

In the case of `O=C(Nc1ccccn1)N1CCCC1` [Complex U7], in data set [1], the viability at 72 h, 10 µM turned out to be 103 ± 2.8% and the viability at 72 h, 100 µM is 99.8 ± 5.7%.

`O=C(Nc1ccccn1)N1CCCCC1` [Complex U8]: in data set [1], the viability at 72 h, 10 µM was found to be 100 ± 9.4% and the viability at 72 h, 100 µM turned out to be 97.2 ± 6.1%.

Consider `Cc1ccnc(NC(=O)N2CCCCC2)c1` [Complex U9], for which, in data set [1], the viability at 72 h, 10 µM came out at 103 ± 6.3% and the viability at 72 h, 100 µM turned out to be 98.3 ± 8.1%.

For `COc1ccnc(NC(=O)N2CCCCC2)c1` [Complex U10], in data set [1], the viability at 72 h, 10 µM turned out to be 102 ± 5.2% and the viability at 72 h, 100 µM was 99.5 ± 8.1%.

In the case of `O=C(Nc1cc([N+](=O)[O-])ccn1)N1CCCCC1` [Complex U11], in data set [1], the viability at 72 h, 10 µM worked out at 105 ± 6.7% and the viability at 72 h, 100 µM is 94.3 ± 9%.

Take `Cc1ccnc(NC(=O)N2CCOCC2)c1` [Complex U12]: in data set [1], the viability at 72 h, 10 µM was determined as 97.4 ± 5.5% and the viability at 72 h, 100 µM is 85.4 ± 7.8%.

As to `CN(C)C(=O)Nc1ccccn1.CN(C)C(=O)Nc1ccccn1.[Cl-].[Cl-].[Cu+2]` [[Cu(U1)2Cl]^+[Cl]^−], the IC50 came out at 120 ± 18.4 µM in data set [2], 107 ± 15.1 µM in data set [3], 108 ± 27.5 µM in data set [4] and 65.3 ± 10.9 µM in data set [5].

With `Cc1ccnc(NC(=O)N(C)C)c1.Cc1ccnc(NC(=O)N(C)C)c1.[Cl-].[Cl-].[Cu+2]` [[Cu(U2)2Cl]^+[Cl]^−], the IC50 in data set [2] is 122 ± 15.3 µM; in data set [3], 94.5 ± 14.1 µM; in data set [4], 101 ± 15.1 µM; in data set [5], 65.4 ± 8.6 µM. Also, the Molar conductivity in data set [6] is reported as 24.8 Ω^−1·cm^2·mol^−1.

As to `CN(C)C(=O)Nc1cc(C#N)ccn1.CN(C)C(=O)Nc1cc(C#N)ccn1.[Cl-].[Cl-].[Cu+2]` [[Cu(U4)2Cl]^+[Cl]^−], the IC50 in data set [2] came out at 118 ± 13.4 µM; in data set [3], 106 ± 12.2 µM; in data set [4] it was 109 ± 16.4 µM; in data set [5], 68.3 ± 8.5 µM. For the same compound, in data set [6], the Molar conductivity is 25.2 Ω^−1·cm^2·mol^−1.

Turning to `Cc1nc(-c2ccnc(NC(=O)N(C)C)c2)no1.Cc1nc(-c2ccnc(NC(=O)N(C)C)c2)no1.[Cl-].[Cl-].[Cu+2]` [[Cu(U5)2Cl]^+[Cl]^−], the IC50 stood at 136 ± 12.5 µM in data set [2], 114 ± 14.5 µM in data set [3], 118 ± 24.9 µM in data set [4] and 71.2 ± 6.9 µM in data set [5].

Regarding `Cc1nnc(-c2ccnc(NC(=O)N(C)C)c2)o1.Cc1nnc(-c2ccnc(NC(=O)N(C)C)c2)o1.[Cl-].[Cl-].[Cu+2]` [[Cu(U6)2Cl]^+[Cl]^−], the IC50 was 115 ± 26.3 µM in data set [2], 88.7 ± 12.7 µM in data set [3], 105 ± 14.1 µM in data set [4] and 63.8 ± 8.7 µM in data set [5].

`O=C(Nc1ccccn1)N1CCCC1.O=C(Nc1ccccn1)N1CCCC1.[Cl-].[Cl-].[Cu+2]` [[Cu(U7)2Cl]^+[Cl]^−]: the IC50 in data set [2] worked out at 103 ± 13.1 µM; in data set [3] it was 102 ± 15.8 µM; in data set [4], 100 ± 16.6 µM; in data set [5] it was 66.7 ± 7.6 µM.

In the case of `O=C(Nc1ccccn1)N1CCCCC1.O=C(Nc1ccccn1)N1CCCCC1.[Cl-].[Cl-].[Cu+2]` [[Cu(U8)2Cl]^+[Cl]^−], the IC50 in data set [2] was 102 ± 17.3 µM; in data set [3] it was 98.4 ± 11.1 µM; in data set [4], 111 ± 19.3 µM; in data set [5] it was 64.4 ± 10.5 µM.

Take `Cc1ccnc(NC(=O)N2CCCCC2)c1.Cc1ccnc(NC(=O)N2CCCCC2)c1.[Cl-].[Cl-].[Cu+2]` [[Cu(U9)2Cl]^+[Cl]^−]: the IC50 in data set [2] amounted to 66.4 ± 5.7 µM; in data set [3], 76.1 ± 8.86 µM; in data set [4], 113 ± 23.5 µM; in data set [5], 61.6 ± 6 µM.

With `O=C(Nc1cc([N+](=O)[O-])ccn1)N1CCCCC1.O=C(Nc1cc([N+](=O)[O-])ccn1)N1CCCCC1.[Cl-].[Cl-].[Cu+2]` [[Cu(U11)2Cl2]], the IC50 in data set [2] is 53.6 ± 4.7 µM; in data set [3], 46 ± 4.98 µM; in data set [4], 62.4 ± 5.6 µM; in data set [5], 33.4 ± 3.8 µM. In data set [6], the Molar conductivity was 21.7 Ω^−1·cm^2·mol^−1.

As to `Cc1ccnc(NC(=O)N2CCOCC2)c1.Cc1ccnc(NC(=O)N2CCOCC2)c1.[Cl-].[Cl-].[Cu+2]` [[Cu(U12)2Cl]^+[Cl]^−], the IC50 in data set [2] is 128 ± 19.5 µM; in data set [3], 89.3 ± 6.67 µM; in data set [4] it was 109 ± 13.7 µM; in data set [5] it was 70.2 ± 4.9 µM.
